Earlier results in patent US5817883A, “Processes for producing hydroxyaldehydes” (Union Carbide Chemicals & Plastics Technology Corporation, priority 1997, dated 1998).
Read-outs that look alike come from different tables or passages of the source.

[1] = Table I, organophosphorus ligand basicity

Structure (SMILES): CP(C)C [Trimethylphosphine]
- pKb [1]: 8.7

Structure (SMILES): CP(c1ccccc1)c1ccccc1 [Diphenylmethylphosphine]
- pKb [1]: 4.5

Structure (SMILES): CN(C)c1ccc(P(c2ccc(N(C)C)cc2)c2ccc(N(C)C)cc2)cc1 [Tri(p-N,N-dimethylaminophenyl)phosphine]
- pKb [1]: 8.65

Structure (SMILES): COc1ccc(P(c2ccc(OC)cc2)c2ccc(OC)cc2)cc1 [Tri(p-methoxyphenyl)phosphine]
- pKb [1]: 4.6

Structure (SMILES): CCP(CC)C(C)(C)C [Diethyl-tert-butylphosphine]
- pKb [1]: 10.1

Structure (SMILES): CCCCP(CCCC)CCCC [Tri-n-butylphosphine]
- pKb [1]: 8.4

Structure (SMILES): CCP(CC)CC [Triethylphosphine]
- pKb [1]: 8.7

Structure (SMILES): CCP(CC)c1ccccc1 [Diethylphenylphosphine]
- pKb [1]: 6.4

Structure (SMILES): c1ccc(P(c2ccccc2)c2ccccc2)cc1 [Triphenylphosphine, reference compound]
- pKb [1]: 2.74
- pKb (basicity of reference phosphine): 2.74

Structure (SMILES): CCCCCCCCP(CCCCCCCC)CCCCCCCC [Tri-n-octylphosphine]
- pKb [1]: 8.4

Structure (SMILES): c1ccc(P(c2ccccc2)C2CCCCC2)cc1 [Diphenylcyclohexylphosphine]
- pKb [1]: 5

Structure (SMILES): CCCP(CCC)CCC [Tri-n-propylphosphine]
- pKb [1]: 8.7

Structure (SMILES): CCP(c1ccccc1)c1ccccc1 [Diphenylethylphosphine]
- pKb [1]: 4.9

Structure (SMILES): C1CCC(P(C2CCCCC2)C2CCCCC2)CC1 [Tricyclohexylphosphine]
- pKb [1]: 10
